Reference: article PMC6934184, “Selective DNA-PKcs inhibition extends the therapeutic index of localized radiotherapy and chemotherapy” (The Journal of Clinical Investigation, 2019)

Target: T1, CDK8/cyclin C (Homo sapiens, UniProt P49336)
T1 construct: purchased Thermo Fisher Scientific (Life Technologies) SelectScreen
Test: SelectScreen LanthaScreen
Assay type: binding
Details: 1 µM
Outline: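 Percent values come from Thermo SelectScreen profiling of NU5455, combining activity and binding assays. CSF1R was run in Z'LYTE format at Km app ATP, and CAMK1 in Adapta format with ATP listed at 10.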

T1 sequence (P49336 whole entry): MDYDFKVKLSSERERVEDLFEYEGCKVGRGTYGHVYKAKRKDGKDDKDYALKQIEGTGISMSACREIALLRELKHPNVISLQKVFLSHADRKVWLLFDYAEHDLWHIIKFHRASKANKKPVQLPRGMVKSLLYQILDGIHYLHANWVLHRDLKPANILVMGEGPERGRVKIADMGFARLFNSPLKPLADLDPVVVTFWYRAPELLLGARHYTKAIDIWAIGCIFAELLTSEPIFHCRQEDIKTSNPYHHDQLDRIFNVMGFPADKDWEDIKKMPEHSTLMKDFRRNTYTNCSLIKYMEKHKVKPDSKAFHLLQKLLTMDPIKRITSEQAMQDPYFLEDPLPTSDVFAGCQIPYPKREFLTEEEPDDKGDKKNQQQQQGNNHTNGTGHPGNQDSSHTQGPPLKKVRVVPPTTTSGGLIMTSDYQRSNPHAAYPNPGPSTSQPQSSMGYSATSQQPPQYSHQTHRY
T1 sequence (P24863 whole entry partner): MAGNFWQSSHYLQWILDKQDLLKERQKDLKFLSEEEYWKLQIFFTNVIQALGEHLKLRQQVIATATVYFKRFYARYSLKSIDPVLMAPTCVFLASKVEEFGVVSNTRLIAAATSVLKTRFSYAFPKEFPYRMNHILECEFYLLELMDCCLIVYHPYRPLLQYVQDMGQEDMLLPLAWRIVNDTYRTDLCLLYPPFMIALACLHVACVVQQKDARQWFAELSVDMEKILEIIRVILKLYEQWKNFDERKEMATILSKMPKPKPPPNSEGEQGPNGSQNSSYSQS

CN(C(=O)CN1CCOCC1)c1ccc2sc3c(-c4cccc5c(=O)cc(N6CC7CCC(C6)O7)oc45)cccc3c2c1 [NU5455]
% displacement: 0.1%
